Test results taken from PubChem BioAssay (NCI).
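These data come from cells grown in 96-well plates and exposed to compound for 48 hours at five concentrations. TGI is the concentration that stops growth completely.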

Legend:
Test in all cases: NCI anticancer screen, dose series, 48 h
[1] = system: HOP-62 NSCLC
[2] = system: DMS 114 small cell lung
[3] = system: NCI-H226 lung
[4] = system: K-562 leukemia
[5] = system: RXF 393 renal
[6] = system: SF-268 CNS
[7] = system: SNB-78 CNS
[8] = system: M14 melanoma
[9] = system: HCT-116 colon
[10] = system: RPMI-8226 leukemia
[11] = system: SK-MEL-5 melanoma
[12] = system: OVCAR-8 ovarian
[13] = system: UO-31 renal
[14] = system: MOLT-4 leukemia
[15] = system: KM20L2 colon
[16] = system: M19-MEL melanoma
[17] = system: 786-0 renal
[18] = system: DMS 273 small cell lung
[19] = system: UACC-62 melanoma
[20] = system: XF 498 CNS
[21] = system: CCRF-CEM leukemia
[22] = system: ACHN renal
[23] = system: SNB-75 CNS
[24] = system: OVCAR-4 ovarian
[25] = system: HL-60(TB) leukemia
[26] = system: HCT-15 colon
[27] = system: COLO 205 colon
[28] = system: UACC-257 melanoma
[29] = system: NCI-H522 lung
[30] = system: SK-MEL-28 melanoma
[31] = system: NCI-H460 lung
[32] = system: TK-10 renal
[33] = system: SK-OV-3 ovarian
[34] = system: A549 NSCLC
[35] = system: LOX IMVI melanoma
[36] = system: LXFL 529 NSCLC
[37] = system: SK-MEL-2 melanoma
[38] = system: SNB-19 CNS
[39] = system: NCI-H23 lung
[40] = system: KM12 colon
[41] = system: SW-620 colon
[42] = system: HT29 colon
[43] = system: HOP-18 NSCLC
[44] = system: U251 CNS
[45] = system: SN12C renal
[46] = system: SR leukemia
[47] = system: SF-295 CNS
[48] = system: MALME-3M melanoma
[49] = system: EKVX NSCLC
[50] = system: A498 renal
[51] = system: SF-539 CNS
[52] = system: HCC-2998 colon
[53] = system: DLD-1 colon
[54] = system: CAKI-1 renal
[55] = system: HOP-92 NSCLC
[56] = system: IGROV1 ovarian
[57] = system: OVCAR-3 ovarian
[58] = system: OVCAR-5 ovarian
[59] = system: DU-145 prostate
[60] = system: T-47D breast
[61] = system: MDA-MB-435
[62] = system: MDA-MB-231 breast
[63] = system: BT-549 breast
[64] = system: NCI/ADR-RES ovarian
[65] = system: MCF7 breast
[66] = system: HS 578T breast
[67] = system: PC-3 prostate
[68] = system: MDA-N

CCCC(=O)Nc1ccc(O)c2c1C1CCCCCC21 (stereo not drawn)
TGI [1]: > 100 µM
TGI [2]: > 100 µM
TGI [3]: > 100 µM
TGI [4]: > 100 µM
TGI [5]: > 100 µM
TGI [6]: > 100 µM
TGI [7]: > 100 µM
TGI [8]: > 100 µM
TGI [9]: > 100 µM
TGI [10]: > 100 µM
TGI [11]: > 100 µM
TGI [12]: > 100 µM
TGI [13]: > 100 µM
TGI [14]: > 100 µM
TGI [15]: > 100 µM
TGI [16]: > 100 µM
TGI [17]: > 100 µM
TGI [18]: > 100 µM
TGI [19]: > 100 µM
TGI [20]: > 100 µM
TGI [21]: > 100 µM
TGI [22]: > 100 µM
TGI [23]: > 100 µM
TGI [24]: > 100 µM
TGI [25]: > 100 µM
TGI [26]: > 100 µM
TGI [27]: > 100 µM
TGI [28]: > 100 µM
TGI [29]: > 100 µM
TGI [30]: > 100 µM
TGI [31]: > 100 µM
TGI [32]: > 100 µM
TGI [33]: > 100 µM
TGI [34]: > 100 µM
TGI [35]: > 100 µM
TGI [36]: > 100 µM
TGI [37]: > 100 µM
TGI [38]: > 100 µM
TGI [39]: > 100 µM
TGI [40]: > 100 µM
TGI [41]: > 100 µM
TGI [42]: > 100 µM
TGI [43]: > 100 µM
TGI [44]: > 100 µM
TGI [45]: > 100 µM
TGI [46]: > 100 µM
TGI [47]: > 100 µM
TGI [48]: > 100 µM
TGI [49]: > 100 µM

Cc1ccccc1Cn1nc2ccccc2cc1=O
TGI [50]: > 100 µM
TGI [1]: > 100 µM
TGI [2]: > 100 µM
TGI [3]: > 100 µM
TGI [4]: > 100 µM
TGI [51]: > 100 µM
TGI [6]: > 100 µM
TGI [7]: > 100 µM
TGI [8]: > 100 µM
TGI [9]: > 100 µM
TGI [10]: > 100 µM
TGI [11]: > 100 µM
TGI [52]: > 100 µM
TGI [12]: > 100 µM
TGI [13]: > 100 µM
TGI [53]: > 100 µM
TGI [15]: > 100 µM
TGI [16]: > 100 µM
TGI [17]: > 100 µM
TGI [18]: > 100 µM
TGI [54]: > 100 µM
TGI [19]: > 100 µM
TGI [20]: > 100 µM
TGI [21]: > 100 µM
TGI [22]: > 100 µM
TGI [23]: > 100 µM
TGI [24]: > 100 µM
TGI [26]: > 100 µM
TGI [27]: > 100 µM
TGI [28]: > 100 µM
TGI [30]: > 100 µM
TGI [31]: > 100 µM
TGI [55]: > 100 µM
TGI [32]: > 100 µM
TGI [33]: > 100 µM
TGI [34]: > 100 µM
TGI [35]: > 100 µM
TGI [56]: > 100 µM
TGI [37]: > 100 µM
TGI [38]: > 100 µM
TGI [39]: > 100 µM
TGI [40]: > 100 µM
TGI [57]: > 100 µM
TGI [41]: > 100 µM
TGI [42]: > 100 µM
TGI [43]: > 100 µM
TGI [44]: > 100 µM
TGI [58]: > 100 µM
TGI [45]: > 100 µM
TGI [47]: > 100 µM
TGI [48]: > 100 µM
TGI [49]: > 100 µM

CC(=O)Nc1ccc(C(=O)NN2C(=O)C(Cl)C2c2cc(Br)cc(Br)c2O)cc1 (stereo not drawn)
TGI [50]: > 100 µM
TGI [1]: > 100 µM
TGI [2]: > 100 µM
TGI [3]: > 100 µM
TGI [4]: > 100 µM
TGI [51]: > 100 µM
TGI [6]: > 100 µM
TGI [8]: > 100 µM
TGI [9]: > 100 µM
TGI [10]: > 100 µM
TGI [11]: > 100 µM
TGI [52]: > 100 µM
TGI [12]: > 100 µM
TGI [13]: > 100 µM
TGI [53]: > 100 µM
TGI [14]: > 100 µM
TGI [15]: > 100 µM
TGI [16]: > 100 µM
TGI [17]: > 100 µM
TGI [18]: > 100 µM
TGI [54]: > 100 µM
TGI [19]: > 100 µM
TGI [20]: > 100 µM
TGI [21]: > 100 µM
TGI [22]: > 100 µM
TGI [23]: > 100 µM
TGI [24]: > 100 µM
TGI [25]: > 100 µM
TGI [26]: > 100 µM
TGI [27]: > 100 µM
TGI [28]: > 100 µM
TGI [29]: > 100 µM
TGI [31]: > 100 µM
TGI [55]: > 100 µM
TGI [33]: > 100 µM
TGI [34]: > 100 µM
TGI [35]: > 100 µM
TGI [56]: > 100 µM
TGI [36]: > 100 µM
TGI [37]: > 100 µM
TGI [38]: > 100 µM
TGI [39]: > 100 µM
TGI [40]: > 100 µM
TGI [57]: > 100 µM
TGI [41]: > 100 µM
TGI [43]: > 100 µM
TGI [44]: > 100 µM
TGI [58]: > 100 µM
TGI [45]: > 100 µM
TGI [46]: > 100 µM
TGI [48]: > 100 µM
TGI [49]: > 100 µM

COc1ccc(CNc2cnc3ccc(N)cc3n2)cc1OC
TGI [2]: > 100 µM
TGI [3]: > 100 µM
TGI [4]: > 100 µM
TGI [51]: > 100 µM
TGI [6]: > 100 µM
TGI [7]: > 100 µM
TGI [8]: > 100 µM
TGI [9]: > 100 µM
TGI [10]: > 100 µM
TGI [11]: > 100 µM
TGI [52]: > 100 µM
TGI [12]: > 100 µM
TGI [13]: > 100 µM
TGI [53]: > 100 µM
TGI [14]: > 100 µM
TGI [16]: > 100 µM
TGI [17]: > 100 µM
TGI [18]: > 100 µM
TGI [54]: > 100 µM
TGI [20]: > 100 µM
TGI [21]: > 100 µM
TGI [22]: > 100 µM
TGI [23]: > 100 µM
TGI [24]: > 100 µM
TGI [25]: > 100 µM
TGI [26]: > 100 µM
TGI [27]: > 100 µM
TGI [28]: > 100 µM
TGI [29]: > 100 µM
TGI [30]: > 100 µM
TGI [31]: > 100 µM
TGI [32]: > 100 µM
TGI [34]: > 100 µM
TGI [35]: > 100 µM
TGI [37]: > 100 µM
TGI [38]: > 100 µM
TGI [39]: > 100 µM
TGI [40]: > 100 µM
TGI [57]: > 100 µM
TGI [41]: > 100 µM
TGI [42]: > 100 µM
TGI [43]: > 100 µM
TGI [58]: > 100 µM
TGI [45]: > 100 µM
TGI [46]: > 100 µM
TGI [47]: > 100 µM
TGI [48]: > 100 µM
TGI [49]: > 100 µM

COc1ccc(/C=C2\C(=O)NC(=O)c3ccccc32)cc1OC
TGI [50]: > 100 µM
TGI [1]: 58.3 µM
TGI [2]: 18.4 µM
TGI [3]: 99 µM
TGI [4]: > 70.9 µM
TGI [59]: > 100 µM
TGI [5]: 33.9 µM
TGI [51]: 22.9 µM
TGI [6]: > 69.9 µM
TGI [7]: > 66.2 µM
TGI [8]: > 100 µM
TGI [9]: 43.1 µM
TGI [10]: 47.9 µM
TGI [60]: > 100 µM
TGI [61]: 99.1 µM
TGI [11]: > 94.4 µM
TGI [52]: > 100 µM
TGI [12]: 42.2 µM
TGI [13]: 80 µM
TGI [53]: 19.2 µM
TGI [62]: > 100 µM
TGI [14]: 76.6 µM
TGI [15]: > 100 µM
TGI [16]: > 100 µM
TGI [17]: 44.5 µM
TGI [18]: > 100 µM
TGI [54]: > 100 µM
TGI [19]: 78.2 µM
TGI [20]: 42.5 µM
TGI [21]: 21.9 µM
TGI [22]: > 74.7 µM
TGI [23]: > 87.5 µM
TGI [24]: 62.1 µM
TGI [63]: > 100 µM
TGI [25]: 16.2 µM
TGI [26]: > 100 µM
TGI [27]: > 100 µM
TGI [28]: > 100 µM
TGI [64]: > 100 µM
TGI [29]: 49.6 µM
TGI [30]: > 100 µM
TGI [31]: 67.4 µM
TGI [65]: > 100 µM
TGI [55]: 39.8 µM
TGI [32]: > 100 µM
TGI [33]: 81 µM
TGI [34]: > 100 µM
TGI [35]: 55.8 µM
TGI [56]: > 83.2 µM
TGI [37]: > 94.5 µM
TGI [38]: > 93.6 µM
TGI [39]: > 90.5 µM
TGI [66]: > 100 µM
TGI [67]: > 100 µM
TGI [40]: > 100 µM
TGI [57]: > 26.4 µM
TGI [41]: 46.3 µM
TGI [42]: > 100 µM
TGI [43]: > 100 µM
TGI [44]: > 63.5 µM
TGI [58]: > 100 µM
TGI [45]: > 100 µM
TGI [46]: 18.9 µM
TGI [47]: > 100 µM
TGI [68]: > 66.8 µM
TGI [48]: > 100 µM
TGI [49]: > 100 µM
